Experimental data published in PMC13147306 (The Febs Journal, 2025).

Columns and labels:
AthePKS = assay: steady-state kinetics, HPLC of product 1b; format: biochemical; conditions: read-out: apparent Km; 400 μM malonyl-CoA, 50 mM Tris/HCl pH 7.5, 37 °C
DnrK = target: T1, DnrK (Streptomyces peucetius, UniProt Q06528); assay: O-methylation assay, LC-MS/HPLC; format: biochemical; conditions: 0.5 mM substrate, 2 mM SAM, 5 μM enzyme, HEPES-NaOH pH 8, 37 °C, 24 h
T1 sequence (Q06528 1-356): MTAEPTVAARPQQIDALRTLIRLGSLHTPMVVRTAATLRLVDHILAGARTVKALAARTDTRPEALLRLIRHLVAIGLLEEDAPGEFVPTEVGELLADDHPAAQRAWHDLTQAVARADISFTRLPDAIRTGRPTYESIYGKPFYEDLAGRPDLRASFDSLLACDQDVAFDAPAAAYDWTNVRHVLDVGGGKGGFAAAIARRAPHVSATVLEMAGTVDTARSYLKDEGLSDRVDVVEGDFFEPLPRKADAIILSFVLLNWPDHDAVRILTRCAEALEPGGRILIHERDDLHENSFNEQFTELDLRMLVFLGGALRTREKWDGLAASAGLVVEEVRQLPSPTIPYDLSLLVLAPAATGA

## CNc1ccccc1C(=O)SCCNC(=O)CCNC(=O)[C@H](O)C(C)(C)COP(=O)(O)OP(=O)(O)OC[C@H]1O[C@@H](n2cnc3c(N)ncnc32)[C@H](O)[C@@H]1OP(=O)(O)O [1a, N-methylanthraniloyl-CoA]
AthePKS
  Km: 42.6 µM

## O=c1cc(O)c2ccccc2[nH]1 [2b]
DnrK
  O-methylation assay, LC-MS/HPLC: it was also active with the other heterocycles 2b, 6b, and 8b

## Cn1c(=O)cc(O)c2ccccc21 [1b, 4-hydroxy-1-methyl-2-quinolone]
DnrK
  O-methylation assay, LC-MS/HPLC: DnrK was still the best‐performing enzyme
